BindingDB's records for doi:10.1016/j.bioorg.2016.11.011 (Tehran University of Medical Sciences, 2017)
Several values for one entry are separate records, joined by “and”; a condition that tells them apart may be missing. Identical values can stand only once.

Legend:
[1] = target: Acetylcholinesterase (Electrophorus electricus, UniProt O42275); assay: AChE and BChE Inhibition Assay; details: pH 8; 25 °C
Protocol: (§1) In vitro anti-AChE activity was performed based on the modified Ellman's method [Ellman et al., Biochem. Pharmacol., […]]. […] Each well contained 50 μL potassium phosphate buffer (KH2PO4/K2HPO4, 0.1 M, pH 8), 25 μL prepared sample as described above, 25 μL enzyme with final concentration of 0.22 U/mL in buffer. They were preincubated for 15 min at room temperature, and then […] DTNB (3 mM in buffer) was added. […] The IC50 values were determined graphically from inhibition curves (log inhibitor concentration vs. percent of inhibition). A control experiment was performed under the same conditions without inhibitor and the blank contained buffer, water, DTNB, and substrate. The described method was also used for BChE inhibition assay.

[2] = target: Carboxylic ester hydrolase (Equus caballus, UniProt Q9N1N9); assay: AChE and BChE Inhibition Assay; details: pH 8; 25 °C
Protocol: as §1

Sequence of Acetylcholinesterase (O42275 whole entry): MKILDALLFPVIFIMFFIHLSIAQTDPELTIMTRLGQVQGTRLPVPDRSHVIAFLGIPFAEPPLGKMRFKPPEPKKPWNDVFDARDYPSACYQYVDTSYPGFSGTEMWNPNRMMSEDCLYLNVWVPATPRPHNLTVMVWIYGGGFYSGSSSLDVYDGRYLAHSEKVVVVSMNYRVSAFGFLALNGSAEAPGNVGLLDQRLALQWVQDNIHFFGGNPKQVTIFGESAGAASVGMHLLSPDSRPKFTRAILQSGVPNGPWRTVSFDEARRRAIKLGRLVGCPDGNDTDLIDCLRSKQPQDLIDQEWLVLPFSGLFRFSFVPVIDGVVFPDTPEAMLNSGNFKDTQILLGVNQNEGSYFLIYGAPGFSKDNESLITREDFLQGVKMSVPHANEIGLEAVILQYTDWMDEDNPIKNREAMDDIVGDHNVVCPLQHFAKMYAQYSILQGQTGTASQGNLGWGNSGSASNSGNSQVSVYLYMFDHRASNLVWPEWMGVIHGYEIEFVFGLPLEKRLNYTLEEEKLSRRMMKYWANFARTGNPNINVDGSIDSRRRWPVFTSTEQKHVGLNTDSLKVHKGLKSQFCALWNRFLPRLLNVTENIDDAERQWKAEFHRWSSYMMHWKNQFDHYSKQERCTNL
Sequence of Carboxylic ester hydrolase (Q9N1N9 whole entry): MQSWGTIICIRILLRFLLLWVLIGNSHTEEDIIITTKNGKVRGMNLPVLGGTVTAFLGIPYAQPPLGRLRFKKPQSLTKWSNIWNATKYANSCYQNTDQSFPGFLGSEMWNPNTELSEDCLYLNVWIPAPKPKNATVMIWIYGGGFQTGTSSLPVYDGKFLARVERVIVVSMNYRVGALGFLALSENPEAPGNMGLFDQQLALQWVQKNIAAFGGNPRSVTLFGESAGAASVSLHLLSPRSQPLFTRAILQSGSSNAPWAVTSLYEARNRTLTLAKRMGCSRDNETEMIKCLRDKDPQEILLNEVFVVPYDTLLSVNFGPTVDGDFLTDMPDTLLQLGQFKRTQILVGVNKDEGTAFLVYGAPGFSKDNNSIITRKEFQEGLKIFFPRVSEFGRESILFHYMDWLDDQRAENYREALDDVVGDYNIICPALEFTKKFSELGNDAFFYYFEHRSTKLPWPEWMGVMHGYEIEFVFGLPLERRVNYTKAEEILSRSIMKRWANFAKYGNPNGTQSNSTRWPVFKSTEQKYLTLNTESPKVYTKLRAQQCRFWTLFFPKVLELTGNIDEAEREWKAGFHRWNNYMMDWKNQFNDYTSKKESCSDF

Compound | IC50 [1] | IC50 [2]
COc1cccc2cc(C(=O)NCc3cn(Cc4ccccc4C)nn3)c(=O)oc12 [8-Methoxy-N-((1-(2-methylbenzyl)-1H-1,2,3-triazol-4-yl)methyl)-2-oxo-2H-chromene-3-carboxamide (6l)] | 24.1 µM | > 100 µM
COc1cccc2cc(C(=O)NCc3cn(Cc4cccc(Cl)c4Cl)nn3)c(=O)oc12 [N-((1-(2,3-dichlorobenzyl)-1H-1,2,3-triazol-4-yl)methyl)-8-methoxy-2-oxo-2H-chromene-3-carboxamide (6n)] | 33.8 µM | > 100 µM
O=C(NCc1cnnn1Cc1cccc(Cl)c1Cl)c1cc2ccccc2oc1=O [N-((1-(2,3-dichlorobenzyl)-1H-1,2,3-triazol-5-yl)methyl)-2-oxo-2H-chromene-3-carboxamide (6h)] | 20.2 µM | 67 µM
O=C(NCc1cnnn1Cc1ccccc1Br)c1cc2ccccc2oc1=O [N-((1-(2-bromobenzyl)-1H-1,2,3-triazol-5-yl)methyl)-2-oxo-2H-chromene-3-carboxamide (6j)] | – | 31 µM and > 100 µM
COc1cccc2cc(C(=O)NCc3cn(Cc4ccccc4Cl)nn3)c(=O)oc12 [N-((1-(2-chlorobenzyl)-1H-1,2,3-triazol-4-yl)methyl)-8-methoxy-2-oxo-2H-chromene-3-carboxamide (6m)] | 15.4 µM | 96.1 µM
O=C(NCc1cnnn1Cc1ccccc1Cl)c1cc2ccccc2oc1=O [N-((1-(2-chlorobenzyl)-1H-1,2,3-triazol-5-yl)methyl)-2-oxo-2H-chromene-3-carboxamide (6f)] | 34 µM | > 100 µM
Cc1ccccc1Cn1nncc1CNC(=O)c1cc2ccccc2oc1=O [N-((1-(2-methylbenzyl)-1H-1,2,3-triazol-5-yl)methyl)-2-oxo-2H-chromene-3-carboxamide (6b)] | 78.9 µM | > 100 µM
COc1cccc2cc(C(=O)NCc3cn(Cc4ccc(Cl)c(Cl)c4)nn3)c(=O)oc12 [N-((1-(3,4-dichlorobenzyl)-1H-1,2,3-triazol-4-yl)methyl)-8-methoxy-2-oxo-2H-chromene-3-carboxamide (6o)] | 25.5 µM | > 100 µM
O=C(NCc1cnnn1Cc1ccc(Cl)c(Cl)c1)c1cc2ccccc2oc1=O [N-((1-(3,4-dichlorobenzyl)-1H-1,2,3-triazol-5-yl)methyl)-2-oxo-2H-chromene-3-carboxamide (6i)] | 16.7 µM | > 100 µM
O=C(NCc1cnnn1Cc1cccc(Cl)c1)c1cc2ccccc2oc1=O [N-((1-(3-chlorobenzyl)-1H-1,2,3-triazol-5-yl)methyl)-2-oxo-2H-chromene-3-carboxamide (6g)] | 92.8 µM | > 0.1 µM
O=C(NCc1cnnn1Cc1cccc(F)c1)c1cc2ccccc2oc1=O [N-((1-(3-fluorobenzyl)-1H-1,2,3-triazol-5-yl)methyl)-2-oxo-2H-chromene-3-carboxamide (6d)] | 48.1 µM | > 100 µM
O=C(NCc1cn(Cc2ccc(Br)cc2)nn1)c1cc2ccccc2oc1=O [N-((1-(4-bromobenzyl)-1H-1,2,3-triazol-4-yl)methyl)-2-oxo-2H-chromene-3-carboxamide (6k)] | – | > 100 µM and 75.3 µM
O=C(NCc1cnnn1Cc1ccc(F)cc1)c1cc2ccccc2oc1=O [N-((1-(4-fluorobenzyl)-1H-1,2,3-triazol-5-yl)methyl)-2-oxo-2H-chromene-3-carboxamide (6e)] | > 100 µM | > 100 µM
Cc1ccc(Cn2nncc2CNC(=O)c2cc3ccccc3oc2=O)cc1 [N-((1-(4-methylbenzyl)-1H-1,2,3-triazol-5-yl)methyl)-2-oxo-2H-chromene-3-carboxamide (6c)] | > 100 µM | > 100 µM
O=C(NCc1cnnn1Cc1ccccc1)c1cc2ccccc2oc1=O [N-((1-benzyl-1H-1,2,3-triazol-5-yl)methyl)-2-oxo-2Hchromene-3-carboxamide (6a)] | > 100 µM | > 100 µM
